Test results published in US12121596B2, “Near infrared fluorescent dyes, formulations and related methods” (Washington University, priority 2019, dated 2024).
Positions of bridges follow the written chain, without caps; N, C: chain ends. Non-standard residues stand in square brackets, D forms with d. Residues, ends and D or L forms follow the SMILES beside them. Primed or numbered codes have the meaning given here. *: point of attachment. X1 = CC1(C)C(/C=C/C=C/C=C/C=C2/N(CCC(=O)*)c3ccc4ccccc4c3C2(C)C)=[N+](CCC(=O)[O-])c2ccc3ccccc3c21; Cypate′ = not defined here

What was measured:
[1] = test system: breast cancer patient-derived xenograft; test: In vivo NIR imaging of tumor retention; parameters: species or system mice; settings: for tumor retention: control experiments, patient-derived xenograft
Description: To establish the various tumor models, nude, Balb/c, or C57BL6 mice were injected with 10^5-10^7 tumor cells subcutaneously on unilateral or bilateral flanks. In some cases, spontaneous tumor models were used. Animals injected subcutaneously with saline served as sham tumor controls. For near-infrared imaging, 100 μL volumes of 60 μM LS301 or cypate in PBS were injected intravenously by lateral tail vein, and animals were imaged using a Pearl Small Animal Imager (LI-COR Biotechnology, Lincoln, NE, USA) at the indicated time points. In some experiments, probes were formulated in 1% albumin in PBS. Animals were shaved using commercially available hair removal equipment and products before imaging. For experiments involving further tissue analysis, animals were anesthetized with isoflurane and euthanized by cervical dislocation under anesthesia. Organs were harvested by surgical dissection. For quantitative organ biodistribution studies, individual regions of interest were drawn around each organ of interest, and fluorescence was quantified using the Pearl Small Animal Imager software.

[2] = test system: lung (A549), breast (MDA-MB-231 and 4T1), and myeloid leukemia (HL60) cell lines; test: Cellular uptake in cancer cell lines, live-cell imaging; type: cell-based; settings: A549, MDA-MB-231, 4T1, HL60
Description: In general, cultured cancer cells were grown and incubated with the indicated amount of probe in Lab-Tek 8-chambered slides for the indicated time durations. Cells were washed with PBS at selected time points and underwent conventional slide preparation, ICC if indicated, and viewing under epifluorescence or confocal. For live-cell imaging of LS301, internalization at 37° C. in human dermal fibroblasts (Coriell Cell Technologies) and tumor cells including 4T1luc, MDA-MB-231, 5TGM, A549, and HL60 (ATCC) cells were cultured in appropriate media supplemented with 10% […] and penicillin/streptomycin and incubated at 37° C. in 5% CO2 incubator. The cells were grown on Lab-Tek 8-chamber slides (Nunc Inc. Rochester, NY) in the culture medium overnight before the experiment. The compounds were dissolved in 20% DMSO in […] PBS (pH 7.4) (Sigma, St. Louis, MO) for stocking solution and mixed with culture medium to reach the final concentration. Cells were incubated with 1 μM compounds in chamber slides at different time points at 37° C. After LS301 treatment, the culture media was removed and followed by adding culture media containing SYTO 13 nuclear dye from (Thermo Fisher Scientific, Waltham, MA) for 45 minutes at 37° C. For assessing cellular colocalization of LS301 with lipid rafts, the Vybrant AlexaFluor 488 Lipid Raft Labeling Kit (Thermo Fisher Scientific, Waltham, MA, USA) was used per the manufacturer's instructions. […]. LS301 and AlexaFluor 488 fluorescence were imaged using the cypate filter set (Ex/Em 750-800 nm/818-873 nm) and fluorescein isothiocyanate (FITC) filter set (Ex/Em 460-500/510-560 nm), respectively.

[3] = test system: diverse tumors; test: LS838 fluorescence and tumor retention
[4] = test system: heart; settings: in vivo
[5] = test system: 4T1 luc/GFP cells; test: In vitro blocking of LS301 binding and internalization; type: cell-based, murine
Description: For in vitro blocking studies of LS301, 4T1 luc/GFP cells were treated for 24 h with LS301 alone, blocking peptide LCKLSL plus LS301, scrambled blocking peptide LGKLSL plus LS301, or unlabeled LS301 analog LS637 plus LS301. Cells were prepared for confocal microscopy.

CC1(C)C(/C=C/C=C/C=C/C=C2/N(CCC(=O)O)c3ccc4ccccc4c3C2(C)C)=[N+](CCC(=O)[O-])c2ccc3ccccc3c21 [Cypate]
tumor retention [1]: not retained
tumor retention with or without albumin formulation ([1]; in vivo): did not retain
retention in cell lines [2]: only transient retention

CC1(C)C(/C=C/C=C/C=C/C=C2/N(CCC(=O)N[C@@H]3CSSC[C@@H](C(=O)N[C@@H](Cc4ccc(O)cc4)C(=O)O)NC(=O)[C@@H]4CCCN4C(=O)[C@H](CO)NC(=O)[C@H](CC(=O)O)NC(=O)[C@H](CCCNC(=N)N)NC(=O)CNC3=O)c3ccc4ccccc4c3C2(C)C)=[N+](CCC(=O)[O-])c2ccc3ccccc3c21 [LS838, cypate-Cyclo(Cys-Gly-Arg-Asp-Ser-Pro-Cys)-Tyr-OH] (X1-[dC]GRDSPCY-OH; disulfide 1-7)
retention in tumors [3]: selectively remains in diverse tumors without significant loss of fluorescence over time

Cypate-cyclo(Cys-Arg-Gly-Asp-Ser-Pro-Cys)-Lys-OH ({Cypate′}-CRGDSPCK-OH; disulfide 1-7) [scrambled LS301 peptide analog]
tumor retention [1]: not retained

COc1cccc2c1C(=O)c1c(O)c3c(c(O)c1C2=O)C[C@@](O)(C(=O)CO)C[C@@H]3O[C@H]1C[C@H](NC(=O)CC[N+]2=C(/C=C/C=C/C=C/C=C3/N(CCC(=O)N[C@@H]4CSSC[C@@H](C(=O)N[C@@H](CCCCN)C(=O)O)NC(=O)[C@@H]5CCCN5C(=O)[C@H](CO)NC(=O)[C@H](CC(=O)O)NC(=O)[C@H](CCCNC(=N)N)NC(=O)CNC4=O)c4ccc5ccccc5c4C3(C)C)C(C)(C)c3c2ccc2ccccc32)[C@H](O)[C@H](C)O1 [LS766, doxorubicin-cypate-cyclic(DCys-Gly-Arg-Asp-Ser-Pro-Cys)-Lys-OH]
accumulation in the heart [4]: does not accumulate in the heart

LCKLSL
effect on binding and internalization of LS301 in cells [5]: inhibited the binding and internalization of LS301
